This is an account of results in publication PMC8881610 (Nature Communications, 2022).

Assay [1] deals with T1, GLP-1R (Homo sapiens, UniProt P43220, K197A).
T1 construct: Flag; expressed in transfected cells; host or cells: HEK293T
In words: cAMP accumulation assay, GLP-1R WT, mutant or modified constructs. The class given is cell-based. Conditions: HEK-293T, GLP-1R K197A; HEK293T. As to the method:
(§1) Human embryonic kidney 293 cells containing SV40 large T-antigen (HEK293T) were cultured in DMEM (Gibco) supplemented with 10% (v/v) fetal bovine serum (FBS, Gibco), 1 mM sodium pyruvate (Gibco) and 100 units/mL penicillin and 100 μg/mL streptomycin at 37 °C in 5% CO2. Chinese hamster ovary (CHO-K1) cells were cultured in F-12 (Gibco) containing 10% FBS, 100 units/mL penicillin and 100 μg/mL streptomycin at 37 °C in 5% CO2. For cAMP and receptor expression assays, HEK293T cells were seeded into 6-well cell culture plates at a density of 7 × 10^5 cells per well. After overnight incubation, cells were transfected with GIPR, GLP-1R or GCGR construct using Lipofectamine 2000 or Lipofectamine 3000 transfection reagent (Invitrogen). For whole-cell binding assay, CHO-K1 cells were seeded into 96-well fibronectin-treated cell culture plates at a density of 3 × 10^4 cells per well. After overnight incubation, cells were transfected with GIPR, GLP-1R or GCGR construct using Lipofectamine 2000 transfection reagent (Invitrogen). Following 24 h culturing, the transfected cells were ready for use. […]
(§2) For GIPR, GLP-1R and GCGR, multi-targeting agonist stimulated cAMP accumulation was measured by a LANCE Ultra cAMP kit (PerkinElmer). […] Plates were incubated at RT for 1 h and the fluorescence intensity measured at 620 nm and […] by an EnVision multilabel plate reader (PerkinElmer).
On the technique in general: Changes in cAMP serve as a functional read-out for many G protein-coupled receptors.

Assay [2] has as its target T2, GLP-1R (Homo sapiens, UniProt P43220, R190A).
T2 construct: Flag; expressed in transfected cells; host or cells: HEK293T
The assay is described as above. The class given is cell-based. Conditions: HEK-293T, GLP-1R R190A; HEK293T. As to the method:
as §1, §2

The structures appear in SMILES notation.

T2 sequence (P43220 24-463 R190A): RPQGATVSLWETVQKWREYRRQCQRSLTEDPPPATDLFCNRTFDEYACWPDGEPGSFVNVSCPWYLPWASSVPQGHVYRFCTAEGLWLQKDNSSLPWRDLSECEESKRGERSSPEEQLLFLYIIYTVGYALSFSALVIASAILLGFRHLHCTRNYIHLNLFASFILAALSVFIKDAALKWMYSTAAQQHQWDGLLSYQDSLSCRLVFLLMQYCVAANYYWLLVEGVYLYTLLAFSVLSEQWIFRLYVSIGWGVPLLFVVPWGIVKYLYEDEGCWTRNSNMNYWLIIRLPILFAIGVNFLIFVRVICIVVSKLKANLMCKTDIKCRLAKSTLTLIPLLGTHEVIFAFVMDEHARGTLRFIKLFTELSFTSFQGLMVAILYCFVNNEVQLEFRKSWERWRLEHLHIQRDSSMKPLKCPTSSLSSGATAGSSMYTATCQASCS
T1 sequence (P43220 24-463 K197A): as the sequence (P43220 24-463 R190A) above, with A167R, K174A counted along it

One may read the Emax as the size of the effect at its maximum, as opposed to the concentration needed. On to `CC[C@H](C)[C@H](NC(=O)[C@H](CC(C)C)NC(=O)[C@H](Cc1c[nH]c2ccccc12)NC(=O)[C@H](CCC(N)=O)NC(=O)[C@@H](NC(=O)[C@H](Cc1ccccc1)NC(=O)[C@H](C)NC(=O)[C@H](CCCCNC(=O)COCCOCCNC(=O)COCCOCCNC(=O)CC[C@H](NC(=O)CCCCCCCCCCCCCCCCCCC(=O)O)C(=O)O)NC(=O)[C@H](CCC(N)=O)NC(=O)[C@H](C)NC(=O)[C@@H](NC(=O)[C@H](CCCCN)NC(=O)[C@H](CC(=O)O)NC(=O)[C@H](CC(C)C)NC(=O)C(C)(C)NC(=O)[C@@H](NC(=O)[C@H](CO)NC(=O)[C@H](Cc1ccc(O)cc1)NC(=O)[C@H](CC(=O)O)NC(=O)[C@H](CO)NC(=O)[C@@H](NC(=O)[C@H](Cc1ccccc1)NC(=O)[C@@H](NC(=O)CNC(=O)[C@H](CCC(=O)O)NC(=O)C(C)(C)NC(=O)[C@@H](N)Cc1ccc(O)cc1)[C@@H](C)O)[C@@H](C)O)[C@@H](C)CC)[C@@H](C)CC)C(C)C)C(=O)N[C@@H](C)C(=O)NCC(=O)NCC(=O)N1CCC[C@H]1C(=O)N[C@@H](CO)C(=O)N[C@@H](CO)C(=O)NCC(=O)N[C@@H](C)C(=O)N1CCC[C@H]1C(=O)N1CCC[C@H]1C(=O)N1CCC[C@H]1C(=O)N[C@@H](CO)C(N)=O` [Tirzepatide], for which the Emax was 111 ± 2.77% in assay [1] and 102 ± 2.41% in assay [2].
